Values quoted from earlier work, collected in patent US20110029296A1, “Metabolic analysis apparatus and metabolic analysis method” (FUJITSU LIMITED, priority 2009, published 2011).

Target: CYP2E1 (Homo sapiens, UniProt P05181)
Sequence (P05181 whole entry, species assumed): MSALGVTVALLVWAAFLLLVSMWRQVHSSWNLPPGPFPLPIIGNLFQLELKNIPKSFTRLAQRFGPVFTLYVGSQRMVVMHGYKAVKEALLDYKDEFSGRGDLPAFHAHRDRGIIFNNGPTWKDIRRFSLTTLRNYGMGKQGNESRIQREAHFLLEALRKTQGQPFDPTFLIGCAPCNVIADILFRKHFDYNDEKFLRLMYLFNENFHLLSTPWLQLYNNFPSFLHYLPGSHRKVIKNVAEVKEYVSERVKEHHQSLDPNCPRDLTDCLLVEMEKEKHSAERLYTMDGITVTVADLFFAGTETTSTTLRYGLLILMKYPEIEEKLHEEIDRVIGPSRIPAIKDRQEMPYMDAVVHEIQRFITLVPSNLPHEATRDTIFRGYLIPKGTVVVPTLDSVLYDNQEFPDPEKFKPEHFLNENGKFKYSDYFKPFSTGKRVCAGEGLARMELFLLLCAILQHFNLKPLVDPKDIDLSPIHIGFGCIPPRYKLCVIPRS

Compound: Nc1cc2c3ccccc3ccc2c2ccccc12 [6-aminochrysene]
- metabolism by CYP2E1 (forms a complex with CYP2E1): not metabolized by CYP2E1
- effect on the metabolic reaction of CYP2E1 (inhibition by the amino group): inhibitor which inhibits the metabolic reaction of CYP2E1
